Assay results from US12551492B2, “Enthesis healing” (UNIVERSITY OF UTAH RESEARCH FOUNDATION, priority 2020, dated 2026).
Where two headings read alike, the source gives them in different places.

B1: PDGF-BB: platelet derived growth factor-BB (protein, UniProt P01127 82-190, looked up)
Platelet-derived growth …: SLGSLTIAEPAMIAECKTRTEVFEISRRLIDRTNANFLVWPPCVEVQRCSGCCNNRNVQCRPTQVQLRPVQVRKIEIVRKKPIFKKATVTLEDHLACKCETVAAARPVT

Columns and labels:
[1] = cited from earlier work
[2] = system: chondrogenic, angiogenic, osteogenic, tendon maturation/modulation, and hormonal genes; assay: Mouse rotator cuff repair, RNA expression analysis at 2 weeks; format: in vivo, male wild type mice; settings: Repair+DES vs Repair Only, p<0.02
From the text: (§1) Twenty-nine male wild type mice were randomly divided into three study groups. Group 1 (Control) consisted of unoperated mice which provided intact “control” shoulders with normal rotator cuff tendons. Group 2 (Repair Only) was a surgical repair group injected with the drug carrier used in Group 3. Group 3 (Repair+DES) was a surgical repair group injected with diethylstilbestrol (DES). Twenty-three mice were sacrificed four weeks post-operatively and used for histological analyses including scanning electron & light microscopy. The six remaining mice (n=3 Repair Only and n=3 Repair+DES) were sacrificed at 2 weeks for RNA expression analysis of various chondrogenic, angiogenic, osteogenic, tendon maturation/modulation, and hormonal genes.

[3] = system: rotator cuff enthesis; assay: Mouse rotator cuff repair, histological analyses four weeks post-operatively; format: in vivo, male wild type mice
From the text: as §1

[4] = Multi-payor national database study: infection after rotator cuff repair; format: in vivo; settings: patients receiving testosterone replacement vs non-testosterone replacement patients, adjusted
Protocol: A study within a multi-payor large national database with over 160 million individuals was conducted including 292,666 patients who underwent RCR and an equal number of controls matched for age, sex, year of surgery, and years within the database.
The higher testosterone levels found in males as compared to females increase the presence of Cutibacterium acnes on the skin.

[5] = system: rotator cuff repair; settings: mouse and rat models; cited from earlier work
[6] = Table 1, available forms of estrogen
[7] = Table 2, available forms of testosterone

Row | Molecule | Half-life [1, 6] | Half-life [1, 7] | other results
1 | CCN(CC)CCOc1ccc(C(=C(Cl)c2ccccc2)c2ccccc2)cc1 [Clomiphene (SERM), Clomiphene] | 5 days |  | 
2 | CC/C(=C(/CC)c1ccc(O)cc1)c1ccc(O)cc1 [DES, diethylstilbestrol] |  |  | osteogenic, angiogenic, and tendon modulation gene expression [2]: further increased; areas of calcified and uncalcified fibrocartilage ([3]; Repair Only vs Control and Repair+DES, p<0.03): significantly greater in the Repair Only group; bone formation within the humeral head ([3]; Repair+DES vs Repair Only and Control (intact tendon), p<0.001): increase of bone formation
3 | C[C@](O)(COc1ccc(C#N)cc1)C(=O)Nc1ccc(C#N)c(C(F)(F)F)c1 [Enobosarm] |  | 0.0694 days | 
4 | C[C@]12CC[C@@H]3c4ccc(OC(=O)c5ccccc5)cc4CC[C@H]3[C@@H]1CC[C@@H]2O [Estradiol benzoate] | 2 to 5 days |  | 
5 | C[C@]12CC[C@@H]3c4ccc(O)cc4CC[C@H]3[C@@H]1CC[C@@H]2OC(=O)CCC1CCCC1 [Estradiol cypionate] | 8 to 10 days |  | 
6 | CCC(=O)Oc1ccc2c(c1)CC[C@@H]1[C@@H]2CC[C@]2(C)[C@@H](OC(=O)CC)CC[C@@H]12 [Estradiol dipropionate] | >5 days |  | 
7 | CCCCCCC(=O)O[C@H]1CC[C@H]2[C@@H]3CCc4cc(O)ccc4[C@H]3CC[C@]12C [Estradiol enanthate] | 5 to 8 days |  | 
8 | CCCCCCCCCCC(=O)O[C@H]1CC[C@H]2[C@@H]3CCc4cc(O)ccc4[C@H]3CC[C@]12C [Estradiol undecylate] | 1-2 mon |  | 
9 | CCCCC(=O)O[C@H]1CC[C@H]2[C@@H]3CCc4cc(O)ccc4[C@H]3CC[C@]12C [Estradiol valerate] | 4 to 5 days |  | 
10 | N#Cc1ccc(N2CCC[C@@H]2[C@@H](O)C(F)(F)F)cc1C(F)(F)F [Ligandrol] |  | 1 to 1.5 days | 
11 | CC/C(=C(\c1ccccc1)c1ccc(OCCN(C)C)cc1)c1ccccc1 [Tamoxifen (SERM), Tamoxifen] | 5 to 7 days |  | 
12 | C[C@]12CC[C@H]3[C@@H](CCC4=CC(=O)CC[C@@]43C)[C@@H]1CC[C@@H]2OC(=O)CCC1CCCC1 [Testosterone cypionate] |  | 8 days | 
13 | CCCCCCC(=O)O[C@H]1CC[C@H]2[C@@H]3CCC4=CC(=O)CC[C@]4(C)[C@H]3CC[C@]12C [Testosterone enanthate] |  | 4.5 days | 
14 | CCC(=O)O[C@H]1CC[C@H]2[C@@H]3CCC4=CC(=O)CC[C@]4(C)[C@H]3CC[C@]12C [Testosterone propionate] |  | 2 days | 
15 | CCCCCCCCCCC(=O)O[C@H]1CC[C@H]2[C@@H]3CCC4=CC(=O)CC[C@]4(C)[C@H]3CC[C@]12C [Testosterone undecanoate (PO), Testosterone undecanoate] |  | 0.0694 days | Half-life ([1]; Table 2, available forms of testosterone, listed as Testosterone undecanoate (IM)): 34 days
16 | C[C@]12CC[C@H]3[C@@H](CCC4=CC(=O)CC[C@@]43C)[C@@H]1CC[C@@H]2O [testosterone] |  |  | increase in risk of having an infection after an RCR [4]: 75%
17 | FGF-2: fibroblast growth factor 2 |  |  | histologic or biomechanical characteristics after rotator cuff repair [5]: positively influence histologic or biomechanical characteristics
18 | TGF-beta1: transforming growth factor beta1 |  |  | histologic or biomechanical characteristics after rotator cuff repair [5]: positively influence histologic or biomechanical characteristics
19 | B1 |  |  | histologic or biomechanical characteristics after rotator cuff repair [5]: positively influence histologic or biomechanical characteristics
